Data on 4 molecules can be found in patent US20220230723A1, “Electronically Supervised Administration of a Pharmaceutical Composition” (Celon Pharma S.A., priority 2019, published 2022).

Counter-ions that a name gives are not always drawn.

For data set [1] the following is noted: cited from earlier work.
For data set [2] the following is noted: cited from earlier work. This is another data set of the same source.
The conditions of data set [3]: cited from earlier work. This is another data set of the same source.
For data set [4] the following is noted: nebulized saline solution, inhalation; cited from earlier work.
Data set [5] in a line: Literature pharmacokinetics after intravenous infusion. The format is in vivo. To be noted: human, plasma, 0.2 mg/kg; 0.20 mg/kg 40 minutes intravenous infusion, predicted on the basis of literature data. The protocol: Administration route with currently expected minimum level of metabolites is an intravenous one. After intravenous infusion of racemic ketamine at 0.5 mg/kg for 40 minutes, the parent drug maintains its systemic concentration about 200 ng/ml for about 40 minutes, afterwards the concentration falls down quickly with a half-period below 2 hours. Simultaneously, norketamine reaches its maximum concentration at the level of 10-20% of ketamine concentration. The percentage of area-under-curve (AUC) norketamine to ketamine is about 20-40%.

Another data set has as its system NMDA receptor. Conditions: cited from earlier work.
Setting [6] is: after intravenous infusion of racemic ketamine.
The mark [7] stands for this setting: after oral administration of ketamine.

Turning to `CNC1(c2ccccc2Cl)CCCCC1=O` (racemic) [ketamine], the “half-period of concentration fall” value in data set [1] (after intravenous infusion 0.5 mg/kg for 40 minutes) is “below 2 hours”. In addition, the “systemic concentration of parent drug” value in data set [1] (intravenous infusion 0.5 mg/kg for 40 minutes, maintained about 40 minutes) is reported as “about 200 ng/ml”. In addition, in data set [2] (orally administered), the bioavailability is 16-20%. Besides, in data set [3] (human, in vivo), the “share of patients with treatment-resistant depression responsive to treatment” value is on record as “about ⅔”.

In the case of `CN[C@]1(c2ccccc2Cl)CCCCC1=O` [esketamine hydrochloride], the inhaled bioavailability result in data set [4] was “reduced due to both dose-independent and dose-dependent impairment of pulmonary uptake”.

With `CN[C@]1(c2ccccc2Cl)CCCCC1=O` [esketamine], the antidepressant effects entry in data set [3] (TRD patients, 40-minute i.v. infusion of 0.20 mg/kg or 0.40 mg/kg (Singh et al.)) is given as “rapid onset of robust antidepressant effects”. For the same molecule, the concentration at 40 min in data set [5] was 60 to 100 ng/mL.

As to `NC1(c2ccccc2Cl)CCCCC1=O` (stereo not drawn) [norketamine], in the data set on NMDA receptor, the “activity on NMDA receptor relative to ketamine” value is given as “many times less active than ketamine”. In data set [1] (setting [6]), the “maximum concentration as % of ketamine concentration” value was 10-20% and the “percentage of AUC norketamine to ketamine” value is listed as 20-40%. Further, in data set [2] (setting [7]), the “AUC for norketamine relative to ketamine” value is on record as “exceeding 1000%” and the “norketamine level as % of ketamine level” value was 500-1000%.
